Results: PubChem BioAssay (NCI)
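Cells were grown in 96-well plates and exposed to each compound for 48 hours at five concentrations; endpoints were interpolated linearly between bracketing concentrations, or set to the highest concentration if not reached. Definition used: TGI = concentration required for complete inhibition of growth.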

What was measured:
Assay in all cases: NCI anticancer screen, dose series, 48 h
[1] = tested on: A498 renal
[2] = tested on: U251 CNS
[3] = tested on: UO-31 renal
[4] = tested on: SW-620 colon
[5] = tested on: IGROV1 ovarian
[6] = tested on: SF-539 CNS
[7] = tested on: OVCAR-8 ovarian
[8] = tested on: OVCAR-3 ovarian
[9] = tested on: SK-MEL-28 melanoma
[10] = tested on: MALME-3M melanoma
[11] = tested on: SK-MEL-2 melanoma
[12] = tested on: MDA-MB-435
[13] = tested on: RXF 393 renal
[14] = tested on: M14 melanoma
[15] = tested on: SF-295 CNS
[16] = tested on: NCI-H460 lung
[17] = tested on: HL-60(TB) leukemia
[18] = tested on: LOX IMVI melanoma
[19] = tested on: SNB-75 CNS
[20] = tested on: CAKI-1 renal
[21] = tested on: TK-10 renal
[22] = tested on: COLO 205 colon
[23] = tested on: MDA-MB-231 breast
[24] = tested on: NCI-H522 lung
[25] = tested on: SF-268 CNS
[26] = tested on: CCRF-CEM leukemia
[27] = tested on: SNB-19 CNS
[28] = tested on: HOP-62 NSCLC
[29] = tested on: T-47D breast
[30] = tested on: SR leukemia
[31] = tested on: HT29 colon
[32] = tested on: OVCAR-4 ovarian
[33] = tested on: RPMI-8226 leukemia
[34] = tested on: PC-3 prostate
[35] = tested on: SN12C renal
[36] = tested on: 786-0 renal
[37] = tested on: HS 578T breast
[38] = tested on: K-562 leukemia
[39] = tested on: UACC-62 melanoma
[40] = tested on: NCI-H226 lung
[41] = tested on: MOLT-4 leukemia
[42] = tested on: SK-MEL-5 melanoma
[43] = tested on: OVCAR-5 ovarian
[44] = tested on: KM12 colon
[45] = tested on: HOP-92 NSCLC
[46] = tested on: MCF7 breast
[47] = tested on: HCC-2998 colon
[48] = tested on: A549 NSCLC
[49] = tested on: HCT-116 colon
[50] = tested on: UACC-257 melanoma
[51] = tested on: NCI-H23 lung
[52] = tested on: NCI/ADR-RES ovarian
[53] = tested on: BT-549 breast
[54] = tested on: ACHN renal
[55] = tested on: EKVX NSCLC
[56] = tested on: DU-145 prostate
[57] = tested on: MDA-N
[58] = tested on: HCT-15 colon
[59] = tested on: SK-OV-3 ovarian
[60] = tested on: KM20L2 colon
[61] = tested on: DMS 114 small cell lung
[62] = tested on: M19-MEL melanoma
[63] = tested on: LXFL 529 NSCLC

c1ccc2c(c1)NC1(N3CCCCC3)CCCCC21 (centres undefined)
TGI [1]: 98 µM
TGI [2]: > 100 µM
TGI [3]: > 100 µM
TGI [4]: > 100 µM
TGI [5]: > 100 µM
TGI [6]: > 100 µM
TGI [7]: > 100 µM
TGI [8]: > 100 µM
TGI [9]: > 100 µM
TGI [10]: > 100 µM
TGI [11]: > 100 µM
TGI [12]: > 100 µM
TGI [13]: 80.2 µM
TGI [14]: > 100 µM
TGI [15]: > 100 µM
TGI [16]: > 100 µM
TGI [17]: 82.2 µM
TGI [18]: > 100 µM
TGI [19]: > 100 µM
TGI [20]: > 100 µM
TGI [21]: > 100 µM
TGI [22]: > 100 µM
TGI [23]: > 100 µM
TGI [24]: > 100 µM
TGI [25]: > 100 µM
TGI [26]: > 100 µM
TGI [27]: > 100 µM
TGI [28]: > 100 µM
TGI [29]: 78.1 µM
TGI [30]: > 100 µM
TGI [31]: > 100 µM
TGI [32]: > 100 µM
TGI [33]: > 100 µM
TGI [34]: > 100 µM
TGI [35]: > 100 µM
TGI [36]: > 100 µM
TGI [37]: > 100 µM
TGI [38]: > 100 µM
TGI [39]: > 100 µM
TGI [40]: > 100 µM
TGI [41]: 85.1 µM
TGI [42]: > 100 µM
TGI [43]: > 100 µM
TGI [44]: > 100 µM
TGI [45]: 84 µM
TGI [46]: > 100 µM
TGI [47]: > 100 µM
TGI [48]: > 100 µM
TGI [49]: > 100 µM
TGI [50]: > 100 µM
TGI [51]: > 100 µM
TGI [52]: > 100 µM
TGI [53]: > 100 µM
TGI [54]: > 100 µM
TGI [55]: > 100 µM
TGI [56]: > 100 µM
TGI [57]: > 100 µM
TGI [58]: > 100 µM
TGI [59]: > 100 µM

O=C1C(Cl)N(c2cccc([N+](=O)[O-])c2)C1c1c[nH]c2ccccc12 (centres undefined)
TGI [2]: 56.6 µM
TGI [3]: 47.9 µM
TGI [4]: > 100 µM
TGI [5]: 69.8 µM
TGI [6]: 40.7 µM
TGI [7]: 60.4 µM
TGI [8]: 54.8 µM
TGI [9]: 73.5 µM
TGI [10]: 14.1 µM
TGI [11]: 27.5 µM
TGI [13]: 27 µM
TGI [14]: 33 µM
TGI [15]: 35.1 µM
TGI [16]: 35.4 µM
TGI [17]: > 100 µM
TGI [19]: 47.2 µM
TGI [21]: 59.4 µM
TGI [22]: 41.8 µM
TGI [60]: 53.6 µM
TGI [61]: 47 µM
TGI [24]: 48.7 µM
TGI [25]: > 100 µM
TGI [26]: 65.7 µM
TGI [27]: 57.8 µM
TGI [28]: 33.6 µM
TGI [30]: 57 µM
TGI [31]: 43.7 µM
TGI [32]: 33.7 µM
TGI [33]: 52.2 µM
TGI [35]: > 100 µM
TGI [38]: 64.1 µM
TGI [39]: 32.4 µM
TGI [41]: > 100 µM
TGI [42]: 34.5 µM
TGI [43]: 37.4 µM
TGI [44]: 49.7 µM
TGI [62]: 42.5 µM
TGI [45]: 47.9 µM
TGI [48]: 56.3 µM
TGI [49]: 44.6 µM
TGI [50]: 49 µM
TGI [51]: 85.9 µM
TGI [63]: 20.4 µM
TGI [55]: 96.8 µM
TGI [59]: 38 µM
